Assays:
[1] = system: r(G4C2)8; assay: In vitro Chem-CLIP and C-Chem-CLIP; format: binding; conditions: constant 4 (500 nM), increasing concentrations of competitor
Protocol: In vitro Chemical Cross-linking and Isolation by Pull-Down (Chem-CLIP) and Competitive Chemical Cross-linking and Isolation by Pull-Down (C-Chem-CLIP): Approximately 10,000 counts of ^32P 5′-end labeled r(G4C2)8 was folded in 1×Folding Buffer at 95° C. for 1 min. After cooling to room temperature, the Chem-CLIP probe at the desired concentrations (5, 10, 100, 500, 1000, 5000, 10000 nM) was added, and the samples were incubated at 37° C. for 18 h. For C-Chem-CLIP studies, the parent compound (10, 100, 500, 1000, 5000, 10000 nM) was incubated with RNA for 1 h before addition of the Chem-CLIP probe (500 nM).
Cross-linked RNAs were clicked to biotin […] azide (10 μL of a 5 mM stock solution in DMSO) by incubating in a solution containing 25 mM HEPES (pH 7.1), 250 mM sodium ascorbate, 10 mM CuSO4, and 50 mM THPTA (tris-hydroxypropyltriazolylmethylamine) for 6 h at 37° C. A 300 μL of streptavidin-agarose beads (Sigma-Aldrich) was washed three times and then resuspended in 1×PBS. An aliquot (20 μL) of the slurry was added to each sample, which was incubated for 1 h at room temperature. The samples were centrifuged and the supernatant containing unbound RNA was transferred to an unused tube. The beads were then washed three times with 1×PBS supplemented with 0.10% (v/v) Tween-20 and centrifuged, with each wash supernatant being added to the tube containing unbound RNA. The amounts of radioactivity in the supernatant and associated with the beads were quantified with a Beckman Coulter LS6500 Liquid Scintillation Counter.

[2] = target: T1, Human Topoisomerase II (Homo sapiens, UniProt P11388); assay: Topoisomerase assay; format: biochemical
T1 construct: purchased TopoGen
T1 sequence (P11388 whole entry): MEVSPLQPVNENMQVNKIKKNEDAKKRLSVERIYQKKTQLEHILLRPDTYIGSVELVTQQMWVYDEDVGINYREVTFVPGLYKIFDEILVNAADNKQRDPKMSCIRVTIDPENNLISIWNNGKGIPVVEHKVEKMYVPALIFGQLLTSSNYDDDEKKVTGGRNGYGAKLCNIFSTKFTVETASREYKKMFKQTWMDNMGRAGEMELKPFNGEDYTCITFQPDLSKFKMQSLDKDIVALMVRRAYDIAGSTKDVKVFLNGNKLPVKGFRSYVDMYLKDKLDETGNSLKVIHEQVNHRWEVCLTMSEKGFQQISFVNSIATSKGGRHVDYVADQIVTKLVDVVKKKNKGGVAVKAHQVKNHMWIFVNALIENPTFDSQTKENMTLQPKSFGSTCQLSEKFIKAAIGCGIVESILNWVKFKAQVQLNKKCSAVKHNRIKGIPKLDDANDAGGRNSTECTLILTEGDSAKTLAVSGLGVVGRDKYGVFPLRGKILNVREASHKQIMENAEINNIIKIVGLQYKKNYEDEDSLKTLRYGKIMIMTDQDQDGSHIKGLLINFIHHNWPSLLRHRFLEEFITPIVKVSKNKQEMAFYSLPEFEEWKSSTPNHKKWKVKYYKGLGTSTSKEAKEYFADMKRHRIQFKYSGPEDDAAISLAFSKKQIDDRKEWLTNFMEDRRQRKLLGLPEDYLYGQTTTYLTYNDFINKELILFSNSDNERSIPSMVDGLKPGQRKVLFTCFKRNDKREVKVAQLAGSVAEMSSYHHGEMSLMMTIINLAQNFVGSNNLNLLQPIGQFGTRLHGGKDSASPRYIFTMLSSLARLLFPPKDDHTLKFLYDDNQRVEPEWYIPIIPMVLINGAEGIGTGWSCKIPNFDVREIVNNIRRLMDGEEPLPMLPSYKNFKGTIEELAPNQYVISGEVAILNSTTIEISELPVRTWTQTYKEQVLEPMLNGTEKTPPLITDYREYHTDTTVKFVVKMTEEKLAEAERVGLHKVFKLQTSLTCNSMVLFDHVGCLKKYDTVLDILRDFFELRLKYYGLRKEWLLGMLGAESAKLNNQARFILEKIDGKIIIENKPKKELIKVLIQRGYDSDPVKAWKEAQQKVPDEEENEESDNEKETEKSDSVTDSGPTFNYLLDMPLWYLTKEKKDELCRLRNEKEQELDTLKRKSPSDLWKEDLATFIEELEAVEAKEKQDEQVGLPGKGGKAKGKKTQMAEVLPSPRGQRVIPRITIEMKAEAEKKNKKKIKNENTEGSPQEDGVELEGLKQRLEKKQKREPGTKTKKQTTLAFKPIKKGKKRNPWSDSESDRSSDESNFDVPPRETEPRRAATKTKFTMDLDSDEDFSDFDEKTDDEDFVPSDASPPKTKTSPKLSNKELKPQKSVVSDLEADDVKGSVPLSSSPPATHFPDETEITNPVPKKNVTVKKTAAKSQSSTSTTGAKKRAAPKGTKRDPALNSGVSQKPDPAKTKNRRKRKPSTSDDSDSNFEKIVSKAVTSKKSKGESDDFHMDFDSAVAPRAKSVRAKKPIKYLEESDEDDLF
Protocol: Topoisomerase Assay. Topoisomerase inhibition was assessed in vitro using the TopoGen Human Topoisomerase II Assay Kit per manufacturer's recommended protocol. Samples were run on a 1% agarose gel post-stained with ethidium bromide. Topoisomerase inhibition was quantified as a percentage of linearized DNA compared to the positive control compound VP-16 supplied.

[3] = system: r(G4C2)exp-containing nuclear foci; assay: RNA foci imaging (RNA-FISH) in patient-derived LCLs; format: cell-based, human; conditions: 100 nM
Protocol: Imaging RNA Foci in LCLs. RNA foci containing r(G4C2)^exp were imaged using RNA fluorescence in situ hybridization (FISH) as previously described (13). Briefly, ALS patient-derived LCLs were treated with compound or ASO as described in “Measuring poly(GP) Levels by Electrochemiluminescence”. The cells were harvested, pelleted, and washed with 1×PBS. LCLs were then fixed in 2% paraformaldehyde in 1×PBS for 15 min at room temperature and then washed three times with 1×PBS. The fixed cells were then centrifuged, washed twice with 1×PBS, and seeded into poly lysine coated, glass bottom 96-well plates (˜5×10^5 cells/well). To ensure the cells adhered to the plate, they were incubated at 37° C. for >2 h. The cells were then incubated with 70% ethanol overnight at 37° C. The next day, LCLs were washed with 1×PBS for 15 min at room temperature, and then with 1×PBS containing 0.1% (v/v) Triton X-100 for 5 min at room temperature. […] Quantification was performed in triplicate with ˜200 nuclei counted per sample. Average number of foci per nuclei was assessed for each sample and reported. Statistical analysis was measured using an unpaired t-test with Welch's correction.

[4] = system: C9orf72 intron 1; assay: C9orf72 intron 1 RT-qPCR in iPSC lines from healthy donors; format: cell-based, human
Protocol: iPSCs were treated for 4 days in Matrigel (356234, Corning) coated plates with mTeSR™1 feeder-free medium ([…] Technologies; Catalog #85850). Cells were treated in 6-well plates on day 1 and 3 with compounds diluted in 0.1% final DMSO.
(§1) Measuring Levels of C9orf72 and C9orf72 Variants by RT-qPCR. LCLs were seeded in 6-well plate (˜10^6 cells in 2 mL of growth medium) and incubated overnight at 37° C. Cells were then treated with various concentrations of compound for 24 h or with G4C2-ASO and Control-ASO (100 nM), delivered by transfection with Lipofectamine RNAiMax. RNA was extracted as described above and the expression of C9orf72 variants was determined by RT-qPCR. For iPSC and iPSC-derived motor neuron cell line, the cells were seeded into Matrigel-coated 6-well plate to ˜60% confluence before treated with 3 μM C9orf72-ASO or Control-ASO and various concentrations of compound for 1 to 2 weeks. For compound treatment well, medium change was performed with fresh compound every 3-4 days. RNA was extracted as described above and the expression of C9orf72 variants was determined by RT-qPCR.

[5] = system: C9orf72 exon 1b transcripts lacking r(G4C2)exp; assay: C9orf72 exon 1b RT-qPCR in patient-derived LCLs; format: cell-based, human; conditions: any concentration
Protocol: as §1, with “For iPSC and iPSC-derived motor neuron cell line, the cells were seeded into Matrigel-coated 6-well plate to ˜60% confluence before treated with 3 μM C9orf72-ASO or Control-ASO and various concentrations of compound for 1 to 2 weeks.” left out

Row | topoisomerase activity in vitro [2] | Structure (SMILES) | C-Chem-CLIP, RNA pulled down by 4 [1] | reduction of number of r(G4C2)exp-containing nuclear foci [3] [%] | C9orf72 intron 1 levels [4] | C9orf72 transcripts that lack r(G4C2)exp (exon 1b) [5]
1 | did not inhibit | Cc1c2ccncc2c(C)c2c1[nH]c1ccc(OCCOCCOCCNCCOCCOCCOc3ccc4[nH]c5c(C)c6ccncc6c(C)c5c4c3)cc12 [Compound 3] | reduced the percentage of RNA pulled down in a dose dependent fashion | ~60 | – | –
2 | – | CCOC(=O)C1=C(Nc2ccccc2)S/C(=C\c2ccc(OCCOCCOCCOCCNC(=O)CCC(=O)N(CCOCCOCCOc3ccc4[nH]c5c(C)c6ccncc6c(C)c5c4c3)CCOCCOCCOc3ccc4[nH]c5c(C)c6ccncc6c(C)c5c4c3)c(O)c2)C1=O [Compound 7] | – | – | no effect | no decrease

Reference: US20230381170A1, “METHOD FOR TREATING ALS/FTD THROUGH DEGRADATION OF RNA REPEAT EXPANSION” (University of Florida Research Foundation, Incorporated, priority 2020, published 2023)
